Like-named read-outs stand apart in the source and are kept apart here. *1 amine or outer side, *2 acyl side, *3 side chain or, on linkers, in order; H or OH if unused. Where a SMILES comes first, the peptide text is derived from it. Bridges are numbered along the chain shown (N, C = ends). [ ]: non-standard residue; d: D form. Phe(3,4,5-F3) = N[C@@H](Cc1cc(F)c(F)c(F)c1)C(=O)O; NMePhe(4-F) = CN[C@@H](Cc1ccc(F)cc1)C(=O)O; NMeY = CN[C@@H](Cc1ccc(O)cc1)C(=O)O; NMeF = CN[C@@H](Cc1ccccc1)C(=O)O; X1 = O=C([C@H]1COCCN1[*:1])[*:2]; NMeNle = CCCC[C@H](NC)C(=O)O; dPip = O=C(O)[C@H]1CCCCN1; Orn = NCCC[C@H](N)C(=O)O; Dab = NCC[C@H](N)C(=O)O; Dap = NC[C@H](N)C(=O)O
Target: T1, Human PD-L1/PD-1 (Homo sapiens, UniProt Q9NZQ7)
T1 construct: TVMV protease cleavage site (C); made in house; host or cells: HEK293T cells
T1 sequence (Q9NZQ7 with tags, fused parts or gaps): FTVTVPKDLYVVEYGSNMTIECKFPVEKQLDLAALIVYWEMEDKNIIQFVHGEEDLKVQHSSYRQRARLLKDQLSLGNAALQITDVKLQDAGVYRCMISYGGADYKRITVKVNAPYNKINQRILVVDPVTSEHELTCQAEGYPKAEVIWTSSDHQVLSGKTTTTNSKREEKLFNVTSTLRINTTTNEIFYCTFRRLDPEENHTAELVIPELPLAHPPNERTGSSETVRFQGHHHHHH
Assay: HTRF Human PD-L1/PD-1 binding assay (PD-1-Ig/PD-L1-His)
Conditions: PD-L1-His 10 nM, PD-1-Ig 20 nM
Outline: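 Competition of macrocyclic peptides for PD-1/PD-L1 binding measured by HTRF in dPBS containing 0.1% BSA and 0.05% Tween-20. Compound and PD-L1-His (10 nM final) incubated 15 min before PD-1-Ig (20 nM final) and a further 15 min.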

[1] = class symbol, read-out: HTRF Human PD-L1/PD-1 Binding Assay IC50 Range

SMILES: CC(C)C[C@@H]1NC(=O)[C@H](Cc2ccc(O)cc2)NC(=O)[C@H](Cc2c[nH]c3ccccc23)NC(=O)[C@H]2CCCCN2C(=O)[C@H](CCC(=O)O)NC(=O)[C@H](Cc2ccccc2)N(C)C(=O)[C@H](C(C)C)NC(=O)[C@H](CC(=O)O)NC(=O)[C@H]2CCCN2C(=O)[C@H](Cc2ccccc2)N(C)C(=O)[C@H](Cc2ccc(F)cc2)N(C)C(=O)[C@H](Cc2cc(F)c(F)c(F)c2)NC(=O)CSC[C@@H](C(=O)NCC(N)=O)NC1=O [Example 10614] ({CH2CO}-[Phe(3,4,5-F3)][NMePhe(4-F)][NMeF][dP]DV[NMeF]E[dPip]WYLCG-NH2; thioether N-13)
- IC50 [1]: 10 to 99.9 nM

SMILES: CCCC[C@H]1C(=O)N2CCC[C@@H]2C(=O)N[C@@H](CC(=O)O)C(=O)N[C@@H](C(C)C)C(=O)N(C)[C@@H](Cc2ccccc2)C(=O)N[C@@H](CCC(=O)O)C(=O)N2CCOC[C@@H]2C(=O)N[C@@H](Cc2c[nH]c3ccccc23)C(=O)N[C@@H](Cc2ccc(O)cc2)C(=O)N[C@@H](CC(C)C)C(=O)N[C@H](C(=O)NCC(N)=O)CSCC(=O)N[C@@H](Cc2cc(F)c(F)c(F)c2)C(=O)N(C)[C@@H](Cc2ccc(O)cc2)C(=O)N1C [Example 10615] ({CH2CO}-[Phe(3,4,5-F3)][NMeY][NMeNle][dP]DV[NMeF]E[X1]WYLCG-NH2; thioether N-13)
- IC50 [1]: 10 to 99.9 nM

SMILES: CCCC[C@H]1C(=O)N2CCC[C@@H]2C(=O)N[C@@H](CC(=O)O)C(=O)N[C@@H](C(C)C)C(=O)N(C)[C@@H](Cc2ccccc2)C(=O)N[C@@H](CCC(=O)O)C(=O)N2CCOC[C@@H]2C(=O)N[C@@H](Cc2c[nH]c3ccccc23)C(=O)N[C@@H](Cc2ccc(O)cc2)C(=O)N[C@@H](CCN)C(=O)N[C@H](C(=O)NCC(N)=O)CSCC(=O)N[C@@H](Cc2cc(F)c(F)c(F)c2)C(=O)N(C)[C@@H](Cc2ccc(O)cc2)C(=O)N1C [Example 10616] ({CH2CO}-[Phe(3,4,5-F3)][NMeY][NMeNle][dP]DV[NMeF]E[X1]WY[Dab]CG-NH2; thioether N-13)
- IC50 (read-out: HTRF Human PD-L1/PD-1 Binding Assay IC50): 10.6 nM

SMILES: CCCC[C@H]1C(=O)N2CCC[C@@H]2C(=O)N[C@@H](CC(=O)O)C(=O)N[C@@H](C(C)C)C(=O)N(C)[C@@H](Cc2ccccc2)C(=O)N[C@@H](CCC(=O)O)C(=O)N2CCOC[C@@H]2C(=O)N[C@@H](Cc2c[nH]c3ccccc23)C(=O)N[C@@H](Cc2ccc(O)cc2)C(=O)N[C@@H](CN)C(=O)N[C@H](C(=O)NCC(N)=O)CSCC(=O)N[C@@H](Cc2cc(F)c(F)c(F)c2)C(=O)N(C)[C@@H](Cc2ccc(O)cc2)C(=O)N1C [Example 10617] ({CH2CO}-[Phe(3,4,5-F3)][NMeY][NMeNle][dP]DV[NMeF]E[X1]WY[Dap]CG-NH2; thioether N-13)
- IC50 [1]: 10 to 99.9 nM

SMILES: CCCC[C@H]1C(=O)N2CCC[C@@H]2C(=O)N[C@@H](CC(=O)O)C(=O)N[C@@H](C(C)C)C(=O)N(C)[C@@H](Cc2ccccc2)C(=O)N[C@@H](CCC(=O)O)C(=O)N2CCOC[C@@H]2C(=O)N[C@@H](Cc2c[nH]c3ccccc23)C(=O)N[C@@H](Cc2ccc(O)cc2)C(=O)N[C@@H](CCCN)C(=O)N[C@H](C(=O)NCC(N)=O)CSCC(=O)N[C@@H](Cc2cc(F)c(F)c(F)c2)C(=O)N(C)[C@@H](Cc2ccc(O)cc2)C(=O)N1C [Example 10618] ({CH2CO}-[Phe(3,4,5-F3)][NMeY][NMeNle][dP]DV[NMeF]E[X1]WY[Orn]CG-NH2; thioether N-13)
- IC50 [1]: 10 to 99.9 nM

SMILES: CCCC[C@H]1C(=O)N2CCC[C@@H]2C(=O)N[C@@H](CC(=O)O)C(=O)N[C@@H](C(C)C)C(=O)N(C)[C@@H](Cc2ccccc2)C(=O)N[C@@H](CCC(=O)O)C(=O)N2CCOC[C@@H]2C(=O)N[C@@H](Cc2c[nH]c3ccccc23)C(=O)N[C@@H](Cc2ccc(O)cc2)C(=O)N[C@@H](CCC(N)=O)C(=O)N[C@H](C(=O)NCC(N)=O)CSCC(=O)N[C@@H](Cc2cc(F)c(F)c(F)c2)C(=O)N(C)[C@@H](Cc2ccc(O)cc2)C(=O)N1C [Example 10619] ({CH2CO}-[Phe(3,4,5-F3)][NMeY][NMeNle][dP]DV[NMeF]E[X1]WYQCG-NH2; thioether N-13)
- IC50 [1]: 10 to 99.9 nM
